Assay [1] concerns the target T1, Alpha-2C adrenergic receptor (Homo sapiens, UniProt P18825).
T1 sequence (P18825 whole entry): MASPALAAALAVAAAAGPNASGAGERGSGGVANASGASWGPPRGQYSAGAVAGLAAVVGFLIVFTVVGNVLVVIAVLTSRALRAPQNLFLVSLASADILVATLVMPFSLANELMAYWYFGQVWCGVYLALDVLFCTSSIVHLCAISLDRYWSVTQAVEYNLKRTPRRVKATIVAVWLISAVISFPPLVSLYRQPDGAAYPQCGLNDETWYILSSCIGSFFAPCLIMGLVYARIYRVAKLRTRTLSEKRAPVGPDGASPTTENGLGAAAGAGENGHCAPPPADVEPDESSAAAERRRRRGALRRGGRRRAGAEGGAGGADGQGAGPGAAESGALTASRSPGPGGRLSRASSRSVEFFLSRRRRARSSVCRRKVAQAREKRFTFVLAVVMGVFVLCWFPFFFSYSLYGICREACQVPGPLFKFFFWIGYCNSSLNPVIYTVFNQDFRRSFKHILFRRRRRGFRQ
In kind it is functional.

Assay [2] addresses Vasopressin V2 receptor (Homo sapiens, UniProt P30518).
For assay [3], the target named is T2, Progesterone receptor (Homo sapiens, UniProt P06401).
T2 sequence (P06401 whole entry): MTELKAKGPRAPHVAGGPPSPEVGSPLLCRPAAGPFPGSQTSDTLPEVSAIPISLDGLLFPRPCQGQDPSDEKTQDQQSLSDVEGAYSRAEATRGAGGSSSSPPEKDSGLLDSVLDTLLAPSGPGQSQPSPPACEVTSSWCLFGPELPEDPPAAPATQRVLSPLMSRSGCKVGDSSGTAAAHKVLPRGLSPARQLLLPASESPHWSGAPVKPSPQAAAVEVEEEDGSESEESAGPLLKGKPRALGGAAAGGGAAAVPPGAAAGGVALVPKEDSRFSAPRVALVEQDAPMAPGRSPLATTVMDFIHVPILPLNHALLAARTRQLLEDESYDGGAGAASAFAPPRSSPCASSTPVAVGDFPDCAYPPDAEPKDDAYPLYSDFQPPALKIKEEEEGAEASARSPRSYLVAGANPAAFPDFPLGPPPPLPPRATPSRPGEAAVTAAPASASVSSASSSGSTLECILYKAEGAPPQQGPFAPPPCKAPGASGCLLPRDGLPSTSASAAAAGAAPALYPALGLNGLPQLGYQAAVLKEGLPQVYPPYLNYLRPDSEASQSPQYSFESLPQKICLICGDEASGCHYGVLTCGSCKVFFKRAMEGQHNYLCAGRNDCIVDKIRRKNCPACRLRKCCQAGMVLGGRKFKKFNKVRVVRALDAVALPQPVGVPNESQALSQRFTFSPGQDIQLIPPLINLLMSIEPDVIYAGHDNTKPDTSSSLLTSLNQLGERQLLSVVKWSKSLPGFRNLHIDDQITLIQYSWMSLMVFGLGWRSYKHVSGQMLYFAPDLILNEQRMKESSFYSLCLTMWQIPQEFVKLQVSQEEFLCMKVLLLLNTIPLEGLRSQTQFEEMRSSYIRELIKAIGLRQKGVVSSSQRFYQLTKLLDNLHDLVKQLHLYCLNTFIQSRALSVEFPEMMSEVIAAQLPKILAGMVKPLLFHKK
In kind it is functional.

Assay [4] addresses T3, Cholecystokinin receptor type A (Homo sapiens, UniProt P32238).
T3 sequence (P32238 whole entry): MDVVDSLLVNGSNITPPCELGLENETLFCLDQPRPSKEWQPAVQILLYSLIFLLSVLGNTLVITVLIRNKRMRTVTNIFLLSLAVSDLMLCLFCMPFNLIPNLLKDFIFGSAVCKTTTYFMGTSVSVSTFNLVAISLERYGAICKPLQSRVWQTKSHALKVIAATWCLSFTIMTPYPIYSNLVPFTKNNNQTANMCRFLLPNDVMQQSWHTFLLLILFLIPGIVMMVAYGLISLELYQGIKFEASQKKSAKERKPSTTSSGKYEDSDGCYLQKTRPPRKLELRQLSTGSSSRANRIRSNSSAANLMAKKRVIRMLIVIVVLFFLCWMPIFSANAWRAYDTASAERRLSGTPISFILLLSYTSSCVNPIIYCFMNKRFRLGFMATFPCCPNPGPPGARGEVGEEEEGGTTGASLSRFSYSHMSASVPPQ

The target of assay [5] is T4, Adenosine receptor A3 (Homo sapiens, UniProt P0DMS8).
T4 sequence (P0DMS8 whole entry): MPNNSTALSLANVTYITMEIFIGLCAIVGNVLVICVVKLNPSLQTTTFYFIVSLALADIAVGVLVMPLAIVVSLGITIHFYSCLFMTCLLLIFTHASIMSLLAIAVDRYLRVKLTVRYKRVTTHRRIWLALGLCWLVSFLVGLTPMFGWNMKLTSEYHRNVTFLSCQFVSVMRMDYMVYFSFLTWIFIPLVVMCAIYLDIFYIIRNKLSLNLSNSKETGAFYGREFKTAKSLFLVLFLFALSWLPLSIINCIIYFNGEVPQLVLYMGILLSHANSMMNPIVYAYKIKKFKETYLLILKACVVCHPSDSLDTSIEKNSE

In assay [6] the target is T5, Alpha-2B adrenergic receptor (Homo sapiens, UniProt P18089).
T5 sequence (P18089 whole entry): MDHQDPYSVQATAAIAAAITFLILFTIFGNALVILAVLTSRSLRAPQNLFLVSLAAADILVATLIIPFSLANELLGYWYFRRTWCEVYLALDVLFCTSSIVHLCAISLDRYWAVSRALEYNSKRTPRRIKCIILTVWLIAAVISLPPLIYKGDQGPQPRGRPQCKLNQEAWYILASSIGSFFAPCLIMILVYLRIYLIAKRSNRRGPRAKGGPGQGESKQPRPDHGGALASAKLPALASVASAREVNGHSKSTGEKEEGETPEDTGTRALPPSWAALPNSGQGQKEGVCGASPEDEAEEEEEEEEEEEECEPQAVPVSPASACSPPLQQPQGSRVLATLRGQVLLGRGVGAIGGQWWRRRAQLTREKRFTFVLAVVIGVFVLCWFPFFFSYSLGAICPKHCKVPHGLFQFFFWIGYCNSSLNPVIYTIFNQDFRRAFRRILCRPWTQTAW

As a reminder, the AC50 is the concentration giving half of the maximal activity seen.
Note: assay procedure not described here.

Turning to `O=C(CCCCC(=O)Nc1c(I)cc(I)c(C(=O)O)c1I)Nc1c(I)cc(I)c(C(=O)O)c1I` [IODIPAMIDE], the AC50 in assay [1], in assay [2], in assay [3], in assay [4], in assay [5] and in assay [6] was > 10 µM each time.
For TOCOFERSOLAN, the half-maximal activity concentration (AC50) in assay [1], in assay [2], in assay [3], in assay [4], in assay [5] and in assay [6] was > 30 µM in each case.
Regarding `CN1C(=O)CC(=O)N(c2ccccc2)c2cc(Cl)ccc21` [CLOBAZAM], the AC50 in assay [1], in assay [2], in assay [3], in assay [4], in assay [5] and in assay [6] was > 10 µM each time.
As to `O=C(C[S+]([O-])C(c1ccccc1)c1ccccc1)NO` (stereo not given), the AC50 in assay [1], in assay [2], in assay [3], in assay [4], in assay [5] and in assay [6] was > 30 µM throughout.
Take `CN1C(=O)CC(c2ccccc2)C1=O` (stereo not given) [PHENSUXIMIDE]: the AC50 in assay [1], in assay [2], in assay [3], in assay [4], in assay [5] and in assay [6] was > 10 µM in each case.
Consider `CCC1(C2=CCCCCC2)C(=O)NC(=O)NC1=O` [HEPTABARBITAL], for which the AC50 in assay [1], in assay [2], in assay [3], in assay [4], in assay [5] and in assay [6] was > 10 µM each time.
As for `CCCCC(C)(O)C/C=C/[C@H]1[C@H](O)CC(=O)[C@@H]1CCCCCCC(=O)OC` (stereo not given in full) [MISOPROSTOL], the half-maximal activity concentration (AC50) in assay [1], in assay [2], in assay [3], in assay [4], in assay [5] and in assay [6] was > 30 µM in each case.
`NC(CO)C(=O)NNCc1ccc(O)c(O)c1O` (stereo not given) [BENSERAZIDE]: the AC50 is > 10 µM in assay [1]; > 30 µM in assay [2]; > 30 µM in assay [4]; 21.6 µM in assay [5]; > 10 µM in assay [6].
With `CCCCCCCCOc1ccccc1C(=O)Nc1ccc(C(=O)OCC[N+](C)(CC)CC)cc1` [OTILONIUM BROMIDE], the AC50 in assay [1] is 8.2 µM; in assay [2] it was 9.9 µM; in assay [3], > 30 µM; in assay [4], > 30 µM; in assay [5] it was 5.3 µM; in assay [6], 2.9 µM.
As to `COc1ccc(C(=O)N2CCN(c3ccc4c(c3)CCC(=O)N4)CC2)cc1OC` [VESNARINONE], the concentration at half-maximal activity (AC50) in assay [1] was > 30 µM; in assay [2] it was > 30 µM; in assay [3] it was 12 µM; in assay [4], > 30 µM; in assay [5] it was > 30 µM; in assay [6], > 30 µM.
On to `C#C[C@]1(O)CC[C@H]2[C@@H]3CCC4=CCCC[C@@H]4[C@H]3CC[C@@]21C` [LYNESTRENOL], for which the AC50 in assay [1] was > 30 µM; in assay [2], > 30 µM; in assay [3], 5.2 µM; in assay [4], > 30 µM; in assay [5], > 30 µM; in assay [6], > 30 µM.
In the case of `CN1CC(=O)N2[C@H](c3ccc4c(c3)OCO4)c3[nH]c4ccccc4c3C[C@@H]2C1=O`, the AC50 was > 10 µM in assay [1]; > 30 µM in assay [2]; > 30 µM in assay [4]; > 30 µM in assay [5]; > 10 µM in assay [6].
Consider `CC(Cc1ccccc1)NCCC(c1ccccc1)c1ccccc1` (stereo not given) [PRENYLAMINE], for which the AC50 in assay [1] was 2.3 µM; in assay [2], > 30 µM; in assay [4], > 30 µM; in assay [5] it was 15.6 µM; in assay [6], 1.7 µM.
As for `COc1ccc2cccc(CCNC(C)=O)c2c1` [AGOMELATINE], the AC50 in assay [1] is > 10 µM; in assay [2] it was > 30 µM; in assay [4], > 30 µM; in assay [5], > 30 µM; in assay [6], > 10 µM.
Consider `CN(C)C(=O)OC1N=C(c2ccccc2)c2cc(Cl)ccc2N(C)C1=O` (stereo not given) [CAMAZEPAM], for which the AC50 was > 10 µM in assay [1]; > 30 µM in assay [2]; > 30 µM in assay [4]; > 30 µM in assay [5]; > 10 µM in assay [6].
As to `CC/C=C\C/C=C\C/C=C\CCCCCCCC(=O)O` [LINOLENIC ACID], the AC50 in assay [1], in assay [2], in assay [4], in assay [5] and in assay [6] was > 30 µM throughout.
With `Cc1cc(-c2ccccc2)nnc1NCCN1CCOCC1` [MINAPRINE], the AC50 in assay [1] is > 10 µM; in assay [2], > 30 µM; in assay [4], > 30 µM; in assay [5], > 30 µM; in assay [6], > 10 µM.
Regarding `Cc1c(C(=O)Nc2ccc(N3C[C@@H](C)O[C@@H](C)C3)nc2)cccc1-c1ccc(OC(F)(F)F)cc1` [SONIDEGIB], the AC50 in assay [1] was > 10 µM; in assay [2] it was > 30 µM; in assay [4] it was > 30 µM; in assay [5], > 30 µM; in assay [6] it was > 10 µM.
As for `C1COC(NC(C2CC2)C2CC2)=N1` [RILMENIDINE], the AC50 was 6.8 µM in assay [1]; > 30 µM in assay [2]; > 30 µM in assay [4]; > 30 µM in assay [5]; 7.5 µM in assay [6].
As for `O=C(O)CCCc1ccccc1` [PHENYLBUTANOIC ACID], the AC50 was > 30 µM in assay [1]; > 30 µM in assay [2]; > 10 µM in assay [4]; > 10 µM in assay [5]; > 30 µM in assay [6].
Take `CN[C@@H](C)[C@H](O)c1ccccc1` [EPHEDRINE]: the AC50 in assay [1] is > 10 µM; in assay [2], > 30 µM; in assay [4], > 30 µM; in assay [5], > 30 µM; in assay [6], > 10 µM.

Values taken from ChEMBL document CHEMBL5291721, “A preclinical secondary pharmacology resource illuminates target-adverse drug reaction associations of marketed drugs” (Nat Commun, 2023).
